# Experimental data from patent US11083717B2, “Compositions and methods for drug sensitization of parasites” (The Texas A&M University System, priority 2015, dated 2021).
# Assays:
# CP = experiment: Calf study of CP infection; assay type: in vivo, calves
# Method: New born calves are susceptible to CP infection. They can develop severe diarrhea like humans. Calves were inoculated with 5×10^7 CP oocysts/calf on day 0. Calves had diarrhea in both the groups at onset of dosing. Treatment was started on day 3. Calves were given NZ-369 @ 8.5 mg/kg every 12 hrs for 5 days. Fecal volume, urine volume, daily clinical evaluation, fecal consistency scores and weight gains were evaluated.
# Eimeria = experiment: Coccidiosis in broiler chicks, duodenal lesion scores; assay type: in vivo; details: 20 mg/bird daily by oral gavage, FIG. 7
# Method: To determine the effects of NZ-366 and NZ-369 on coccidiosis in broiler chicks, experimental animals were divided into 4 treatment groups: Unmedicated (UNM), those receiving the experimental compounds (366 and 369); and those receiving Salinomycin (SAL).
# Compounds NZ-366 and NZ-369 were administered at a dose of 20 mg/bird by oral gavage daily beginning from 11 days post-hatching. Salinomycin was administered in-feed beginning from 10 days post-hatching. Broilers were administered a 1000× dose of coccidiosis vaccine by oral gavage at 13 days post-hatching.
# Lesion scores in the duodenum were lower in broiler chicks administered NZ-369 as compared to unmedicated broilers and those administered NZ-366. […] In FIG. 7, lesion scores expressed as the mean±SEM from 24 broilers per treatment.
# Kinetic solubility = assay type: physicochemical
# Cryptosporidium parvum = system: Cryptosporidium parvum
# Method: The anticryptosporidial activity of the in vitro inhibitors was assessed in the IL-12 knockout mouse model that resembles the acute human disease (Ehigiator H N, Romagnoli P, Borgelt K, Fernandez M, McNair N, Secor W E, Mead J R. 2005. Mucosal cytokine and antigen-specific responses to Cryptosporidium parvum in IL-12p40 KO mice. Parasite Immunol. 27: 17-28; Campbell L D, Stewart J N, Mead J R. 2002. Susceptibility to Cryptosporidium parvum infections in cytokine- and chemokine-receptor knockout mice. J. Parasitol. 88:1014-1016). The protocol was approved by the Institutional Animal Care and Use Committees of Emory University, the AtlantaVAMedical Center, and Brandeis University. Mice (6 to 10 per group) were inoculated with 1,000 purified CP oocysts (Iowa isolate, from cattle). Treatment by gavage began 4 h postinfection with either vehicle (5% dimethyl sulfoxide (DMSO) in canola oil), 50-100 mg/kg compound, or 2,000 mg/kg paromomycin. Compounds were given for 7 days, and mice were sacrificed on day 8 (peak infection). Parasite load was quantified by fluorescence-activated cell sorting (FACS) assays for the presence of the oocysts in the feces at days 0, 4, and 7. Fecal pellets from individual mice were routinely collected daily and homogenized in adjusted volumes of 2.5% potassium dichromate. Samples were processed individually. Aliquots (200 ul) of vortexed samples were processed over microscale sucrose gradients as previously described (Arrowood M J, Hurd M R, Mead J R. 1995. A new method for evaluating experimental cryptosporidial parasite loads using immunofluorescent flowcytometry. J. Parasitol. 81:404-409). The oocyst-containing fraction was collected, washed, and treated with monoclonal antibody (OW5O-FITC) for 20 min. Samples were adjusted to 600 ul, and a portion (100 ul) was assayed with a 102-s sampling interval using logical gating of forward/side scatter and OW5O-FITC fluorescence signal on a Becton, Dickinson FACScan flow cytometer. Flow cytometry data were evaluated by analysis of variance (KaleidaGraph (Synergy Software, Reading Pa.); Microsoft Excel (Microsoft Corporation, Redmond, Wash.)).
# NZ-366 (50 mg/kg) and NZ-369 (100 mg/kg) were administered via gavage in a single daily dose to IL-12 knockout mice that were infected with 1,000 CP oocysts. Additional control groups included those treated with single daily doses of vehicle, and paromomycin (Prm) (2,000 mg/kg), by oral gavage.
# [1] = NZ-366 50 mg/kg, NZ-369 100 mg/kg, paromomycin 2,000 mg/kg
structure (smiles),measurement,setting,value
"CNC(=O)C(C)c1ccc(Oc2nc3ccc(Cl)cc3s2)cc1 (stereo not shown) [NZ-369, 2-{4-[(6-chloro-1,3-benzothiazol-2-yl)oxy]phenyl}-N-methylpropanamide]",fecal volume vs control,"CP; 8.5 mg/kg every 12 hrs for 5 days from day 3, through day 8 post infection, FIG. 2",marked reduction in fecal volume
same,clinical evaluation scores,"CP; 8.5 mg/kg every 12 hrs for 5 days, FIG. 4",higher clinical evaluation scores and greater improvement post-infection
same,weight over the trial period vs control calf,"CP; 8.5 mg/kg every 12 hrs for 5 days, FIG. 6",maintained their weight
same,fecal consistency score vs control calves,"CP; 8.5 mg/kg every 12 hrs for 5 days, days 4-7 post infection, FIG. 5",lower fecal consistency score
same,urine output vs control calves,"CP; 8.5 mg/kg every 12 hrs for 5 days, except on day 4 post-infection, FIG. 3",Greater urine output
same,lesion scores in the duodenum vs unmedicated broilers and NZ-366,Eimeria,lower
same,reduction of duodenal lesion scores compared with Salinomycin,Eimeria; Salinomycin in-feed,comparable to broiler chicks administered Salinomycin
same,Kinetic Sol.,Kinetic solubility,86 µM
same,Mouse Model (Mead) DPI7,"Cryptosporidium parvum; @100 mg/kg, day 7 post infection",DPI7 = 70%
same,overt toxicity in the treated infected mice,"Cryptosporidium parvum; NZ-366 50 mg/kg, NZ-369 100 mg/kg, 7 days",no overt toxicity
same,"anticryptosporidial activity, fecal oocysts day 7 post infection","Cryptosporidium parvum; NZ-366 50 mg/kg, NZ-369 100 mg/kg, gavage, single daily dose, FIG. 1",have anticryptosporidial activity
same,effectiveness compared with paromomycin after a single dose,Cryptosporidium parvum; [1],more effective than paromomycin
same,effectiveness compared with paromomycin over the course of the study,Cryptosporidium parvum; [1],equally as effective as paromomycin
